{
  "source": "patent US6552069B1",
  "about": "“3-methyl-chroman and -thiochroman derivatives” (Chugai Seiyaku Kabushiki Kaisha, priority 1999, dated 2003)",
  "test_system": "estradiol-induced increase in uterine weight",
  "assay": "Anti-estrogenic activity (oral administration) in ovariectomized mice administered with 17β-estradiol",
  "assay_type": "in vivo",
  "details": "10 mg/kg p.o. once a day for 3 days, suspended in 5% arabic gum, ovariectomized ICR mice given 17β-estradiol-benzoate 0.1 μg/mouse s.c. for 3 days, uteri weighed 24 hours after last administration",
  "description": "Test compounds were assayed for their oral anti-estrogenic activity in the following manner. In this experiment, the compounds prepared in Examples mentioned above were used as test compounds. As control compounds, the following three were used: a compound described in Example 7 of WO98/25916; ZM; and a compound corresponding to general formula (1) of the present invention, provided that R2 was a C2 perfluoroalkyl group (perfluoroethyl), i.e., 10-[(3RS,4RS)-7-hydroxy-3-(4-hydroxyphenyl)-3-methylthiochroman-4-yl]-2-(4,4,5,5,5-pentafluoropentyl)decanoic acid, which had been synthesized according to Reaction Schemes 1 to 7 mentioned above.\nIn this experiment, each of the test and control compounds was suspended in 5% arabic gum solution and orally administered for 3 days on a once-a-day basis. After 24 hours from the last administration, the test animals were sacrificed and the uteri were removed and weighed.",
  "data": [
    {"smiles": "C[C@@]1(c2ccc(O)cc2)CSc2cc(O)ccc2[C@@H]1CCCCCCCCC(CCCC(F)(F)C(F)(F)F)C(=O)O", "note": "(mixture of isomers) [10-[(3RS,4RS)-7-hydroxy-3-(4-hydroxyphenyl)-3-methylthiochroman-4-yl]-2-(4,4,5,5,5-pentafluoropentyl)decanoic acid, reference compound]", "values": [
      {"measurement": "inhibition in vivo at 10 mg/kg", "result": 75, "unit": "%"}
    ]},
    {"smiles": "C[C@@]1(c2ccc(O)cc2)CSc2cc(O)ccc2[C@@H]1CCCCCCCCC(CCC(F)(F)C(F)(F)C(F)(F)C(F)(F)F)C(=O)O", "note": "(mixture of isomers) [Example 8, 10-[(3RS,4RS)-7-hydroxy-3-(4-hydroxyphenyl)-3-methylthiochroman-4-yl]-2-(3,3,4,4,5,5,6,6,6-nonafluorohexyl)decanoic acid]", "values": [
      {"measurement": "inhibition in vivo at 10 mg/kg", "result": 93, "unit": "%"}
    ]},
    {"smiles": "C[C@@]1(c2ccc(O)cc2)CSc2cc(O)ccc2[C@@H]1CCCCCCCCC(CCCC(F)(F)C(F)(F)C(F)(F)C(F)(F)F)C(=O)O", "note": "(mixture of isomers) [Example 9, 10-[(3RS,4RS)-7-hydroxy-3-(4-hydroxyphenyl)-3-methylthiochroman-4-yl]-2-(4,4,5,5,6,6,7,7,7-nonafluoroheptyl)decanoic acid]", "values": [
      {"measurement": "inhibition in vivo at 10 mg/kg", "result": 93, "unit": "%"}
    ]},
    {"smiles": "C[C@@]1(c2ccc(O)cc2)CSc2cc(O)ccc2[C@@H]1CCCCCCCCCC(CCC(F)(F)C(F)(F)C(F)(F)C(F)(F)F)C(=O)O", "note": "(mixture of isomers) [Example 11, 11-[(3RS,4RS)-7-hydroxy-3-(4-hydroxyphenyl)-3-methylthiochroman-4-yl]-2-(3,3,4,4,5,5,6,6,6-nonafluorohexyl)undecanoic acid]", "values": [
      {"measurement": "inhibition in vivo at 10 mg/kg", "result": 85, "unit": "%"}
    ]},
    {"smiles": "C[C@@]1(c2ccc(O)cc2)CSc2cc(O)ccc2[C@@H]1CCCCCCCCCC(CCCC(F)(F)C(F)(F)C(F)(F)C(F)(F)F)C(=O)O", "note": "(mixture of isomers) [Example 12, 11-[(3RS,4RS)-7-hydroxy-3-(4-hydroxyphenyl)-3-methylthiochroman-4-yl]-2-(4,4,5,5,6,6,7,7,7-nonafluoroheptyl)undecanoic acid]", "values": [
      {"measurement": "inhibition in vivo at 10 mg/kg", "result": 86, "unit": "%"}
    ]},
    {"smiles": "C[C@@]1(c2ccc(O)cc2)COc2cc(O)ccc2[C@@H]1CCCCCCCCC(CCC(F)(F)C(F)(F)C(F)(F)C(F)(F)F)C(=O)O", "note": "(mixture of isomers) [Example 13, 10-[(3RS,4RS)-7-hydroxy-3-(4-hydroxyphenyl)-3-methylchroman-4-yl]-2-(3,3,4,4,5,5,6,6,6-nonafluorohexyl)decanoic acid]", "values": [
      {"measurement": "inhibition in vivo at 10 mg/kg", "result": 84, "unit": "%"}
    ]},
    {"smiles": "C[C@@]1(c2ccc(O)cc2)COc2cc(O)ccc2[C@@H]1CCCCCCCCCC(CCC(F)(F)C(F)(F)C(F)(F)C(F)(F)F)C(=O)O", "note": "(mixture of isomers) [Example 14, 11-[(3RS,4RS)-7-hydroxy-3-(4-hydroxyphenyl)-3-methylchroman-4-yl]-2-(3,3,4,4,5,5,6,6,6-nonafluorohexyl)undecanoic acid]", "values": [
      {"measurement": "inhibition in vivo at 10 mg/kg", "result": 88, "unit": "%"}
    ]},
    {"smiles": "C[C@@]1(c2ccc(O)cc2)COc2cc(O)ccc2[C@@H]1CCCCCCCCC(CCCC(F)(F)C(F)(F)C(F)(F)C(F)(F)F)C(=O)O", "note": "(mixture of isomers) [Example 15, 10-[(3RS,4RS)-7-hydroxy-3-(4-hydroxyphenyl)-3-methylchroman-4-yl]-2-(4,4,5,5,6,6,7,7,7-nonafluoroheptyl)decanoic acid]", "values": [
      {"measurement": "inhibition in vivo at 10 mg/kg", "result": 92, "unit": "%"}
    ]},
    {"smiles": "C[C@@]1(c2ccc(O)cc2)COc2cc(O)ccc2[C@@H]1CCCCCCCCCC(CCCC(F)(F)C(F)(F)C(F)(F)C(F)(F)F)C(=O)O", "note": "(mixture of isomers) [Example 16, 11-[(3RS,4RS)-7-hydroxy-3-(4-hydroxyphenyl)-3-methylchroman-4-yl]-2-(4,4,5,5,6,6,7,7,7-nonafluoroheptyl)undecanoic acid]", "values": [
      {"measurement": "inhibition in vivo at 10 mg/kg", "result": 91, "unit": "%"}
    ]},
    {"smiles": "C[C@@]1(c2ccc(O)cc2)CSc2cc(O)ccc2[C@@H]1CCCCCCCCC(CCC(F)(F)C(F)(F)C(F)(F)C(F)(F)F)C(=O)O", "note": "(single isomer, unassigned) [Example 21, Peak 1]", "values": [
      {"measurement": "inhibition in vivo at 10 mg/kg", "result": 89, "unit": "%"}
    ]},
    {"smiles": "CC1(c2ccc(O)cc2)COc2cc(O)ccc2C1CCCCCCCCCC(CCC(F)(F)C(F)(F)C(F)(F)C(F)(F)F)C(=O)O", "note": "(single isomer, unassigned) [Example 24, Peak 1, 11-[7-hydroxy-3-(4-hydroxyphenyl)-3-methylchroman-4-yl]-2-(3,3,4,4,5,5,6,6,6-nonafluorohexyl)undecanoic acid]", "values": [
      {"measurement": "inhibition in vivo at 10 mg/kg", "result": 85, "unit": "%"}
    ]}
  ]
}
